{"source": "patent US20240207277A1", "about": "“Methods For Treating Drug and Vaccine Induced Immune Thrombocytopenia by Administering Specific Compounds” (Principia Biopharma Inc., priority 2021, published 2024)", "key": {"BTK enzyme": {"target": "BTK enzyme (Homo sapiens, UniProt Q06187)", "sequence (Q06187 whole entry)": "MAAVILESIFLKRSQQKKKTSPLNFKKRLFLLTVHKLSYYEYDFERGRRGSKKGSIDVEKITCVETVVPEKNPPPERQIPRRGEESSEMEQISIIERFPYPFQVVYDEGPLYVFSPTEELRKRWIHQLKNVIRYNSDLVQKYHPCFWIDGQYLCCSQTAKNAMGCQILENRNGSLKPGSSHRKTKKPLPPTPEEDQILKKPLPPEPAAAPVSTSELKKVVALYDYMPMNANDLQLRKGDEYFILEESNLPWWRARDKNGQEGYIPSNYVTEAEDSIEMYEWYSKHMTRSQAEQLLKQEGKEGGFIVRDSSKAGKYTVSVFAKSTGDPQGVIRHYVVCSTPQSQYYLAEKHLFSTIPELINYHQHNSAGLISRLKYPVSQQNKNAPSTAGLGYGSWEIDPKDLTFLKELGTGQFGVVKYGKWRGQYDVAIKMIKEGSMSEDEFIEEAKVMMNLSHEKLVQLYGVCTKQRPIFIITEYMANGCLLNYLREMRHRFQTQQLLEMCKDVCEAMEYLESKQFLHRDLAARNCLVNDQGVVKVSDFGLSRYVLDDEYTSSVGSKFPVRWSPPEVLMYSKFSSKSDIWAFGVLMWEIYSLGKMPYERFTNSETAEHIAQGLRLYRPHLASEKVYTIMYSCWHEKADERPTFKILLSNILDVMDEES", "settings": "healthy volunteers; doses which provide 100% occupancy of the BTK enzyme; cited from earlier work"}, "washed platelets [1]": {"tested_on": "washed platelets", "test": "Light transmission aggregometry of washed platelets stimulated with serum from patients with VITT", "assay_type": "cell-based, human", "procedure": "Washed platelets were prepared from citrated whole blood as described in Nicolson et al., Low-dose BTK inhibitors selectively block platelet activation by CLEC-2, Haematologica 106(1):208-19 (2021). Briefly; citrated blood was taken from healthy, drug-free volunteers and mixed (1:10, v/v) with acid citrate dextrose and centrifuged (200×g, 20 minutes, RT) to produce platelet rich plasma. Platelet rich plasma was then centrifuged (1000×g, 10 minutes, RT) in the presence of 0.2 μg/mL prostacyclin. The platelet pellet was resuspended in modified-Tyrode's-HEPES buffer, prepared as described in Nicolson et al., acid citrate dextrose and 0.2 μg/mL prostacyclin and centrifuged (1000×g, 10 minutes, RT). Platelet pellet was resuspended in modified-Tyrode's-HEPES buffer to a concentration of 2×10^8/mL and allowed to rest for 30 minutes prior to use.\nAggregation was measured in washed platelets (2×10^8/mL) under stirring conditions (1200 rpm) at 37° C. using a light transmission aggregometer (Model 700, ChronoLog) for 20 minutes following stimulation with serum (1:15, v/v). Washed platelets were pre-incubated with IV.3 F(ab) for 5 minutes or with inhibitors for 10 minutes prior to stimulation with serum. Modified-Tyrode's-HEPES buffer or dimethyl sulfoxide (DMSO) was used as vehicle."}, "washed platelets [2]": {"tested_on": "washed platelets", "test": "Light transmission aggregometry, aggregation to collagen", "assay_type": "cell-based, human", "settings": "3 μg/mL collagen; results not shown", "procedure": "[…] Modified-Tyrode's-HEPES buffer or dimethyl sulfoxide (DMSO) was used as vehicle.\nWe tested if the Btk inhibitor rilzabrutinib (rilzabrutinib powder prepared in DMSO (final 0.02% DMSO) to achieve a concentration of 0.5 μM) could prevent platelet aggregation in patient sera."}, "251-kinase panel": {"tested_on": "251-kinase panel", "test": "251-kinase panel selectivity", "assay_type": "biochemical", "settings": "1 μM"}, "[3]": {"test": "Pharmacokinetics in humans after oral administration", "assay_type": "in vivo, human"}, "platelets [4]": {"tested_on": "platelets", "test": "Normal platelet function in vitro", "assay_type": "cell-based"}, "[5]": {"test": "Bleeding in thrombocytopenic patients", "assay_type": "in vivo, human"}, "[6]": {"settings": "in comparison to first and second generation BTKi; cited from earlier work"}, "[7]": {"settings": "Phase 2 trial; cited from earlier work"}, "platelets [8]": {"tested_on": "platelets", "test": "Heparin Induced Platelet Activation (HIPA) assay (HITAlert kit)", "assay_type": "cell-based, human", "source_text": "See, e.g., Greinacher et al., Thrombotic thrombocytopenia after ChAdOx1 nCov-19 vaccination, N Engl J Med, doi:10.1056/NEJMoa2104840 (2021); Schlutz et al., Thrombosis and thrombocytopenia after ChAdox1 nCoV-19 vaccination, N Engl J Med, doi:10.1056/NEJMoa2104882 (2021). Cross-sectional brain imaging verified the presence of cerebral venous sinus thrombosis (CVST) and intracerebral haemorrhage in three patients, and ischemic stroke caused by internal carotid artery thrombus in one patient."}, "platelets via FcγRIIA": {"tested_on": "platelets via FcγRIIA", "settings": "both low and high concentrations of heparin; cited from earlier work"}, "[9]": {"settings": "human, in vivo; cited from earlier work"}, "[10]": {"settings": "HITAlert at presentation, serum of the individual VITT patient, normal range ≤ 8%"}}, "note": "Values joined by “and” are separate entries in the source; they are usually repeats but may differ in a detail not shown here. Equal entries are not always repeated. “Also recorded” adds a separate entry of the source. Where a SMILES comes first, the peptide text is derived from it. Bridges are numbered along the chain shown (N, C = ends). [ ]: non-standard residue; d: D form. hArg = N=C(N)NCCCC[C@H](N)C(=O)O; Mpa = O=C(O)CCS"}
{"molecule": "C=CC(=O)Nc1cccc(Nc2nc(Nc3ccc(OCCOC)cc3)ncc2F)c1", "note": "[CC-292, spebrutinib]", "values": [{"measurement": "tolerability", "setting": "BTK enzyme", "value": "well tolerated"}]}
{"molecule": "CC(C)(C=C(C#N)C(=O)N1CCC[C@@H](n2nc(-c3ccc(Oc4ccccc4)cc3F)c3c(N)ncnc32)C1)N1CCN(C2COC2)CC1", "note": "[Compound (I), (R)-2-[3-[4-amino-3-(2-fluoro-4-phenoxy-phenyl)pyrazolo[3,4-d]pyrimidin-1-yl]piperidine-1-carbonyl]-4-methyl-4-[4-(oxetan-3-yl)piperazin-1-yl]pent-2-enenitrile]", "values": [{"measurement": "platelet aggregation induced by serum from patients with VITT", "setting": "washed platelets [1]; rilzabrutinib 0.5 μM, 10 minutes pre-incubation, washed platelets 2×10^8/mL, serum 1:15 v/v, n=7", "value": "prevented platelet aggregation; also recorded: blocks platelet aggregation"}, {"measurement": "aggregation to collagen", "setting": "washed platelets [2]", "value": "fully inhibited"}, {"measurement": "number of kinases with >90% inhibition", "setting": "251-kinase panel", "value": 6, "unit": "kinases"}, {"measurement": "absorption", "setting": "[3]", "value": "rapidly absorbed"}, {"measurement": "half-life", "setting": "[3]; human, in vivo", "value": "3 to 4", "unit": "h"}, {"measurement": "impact on normal platelet function", "setting": "platelets [4]", "value": "no impact"}, {"measurement": "association with bleeding", "setting": "[5]", "value": "has not been associated with bleeding"}, {"measurement": "cross-reactivity with other molecules", "setting": "[6]", "value": "minimal cross-reactivity"}]}
{"molecule": "N=C(N)c1ccc2cc(OC(=O)c3ccc(N=C(N)N)cc3)ccc2c1", "note": "[FUT-175]", "values": [{"measurement": "effect on aggregation to patient sera (complement inhibitors)", "setting": "washed platelets [1]; data not shown", "value": "minor effects"}]}
{"molecule": "CC[C@H](C)[C@H](N)C(=O)N[C@H]1CSSC[C@@H](C(=O)N[C@H](C(N)=O)[C@@H](C)O)NC(=O)[C@H](CCCN=C(N)N)NC(=O)[C@H](Cc2cnc[nH]2)NC(=O)[C@H](Cc2cnc[nH]2)NC(=O)CNC(=O)[C@H](Cc2c[nH]c3ccccc23)NC(=O)[C@H](CC(=O)O)NC(=O)[C@H](CCC(N)=O)NC(=O)[C@H](C(C)C)NC(=O)[C@H](C(C)C)NC1=O", "note": "[compstatin]", "values": [{"measurement": "effect on aggregation to patient sera (complement inhibitors)", "setting": "washed platelets [1]; data not shown", "value": "minor effects"}]}
{"molecule": "N=C(N)NCCCC[C@@H]1NC(=O)CCSSC[C@@H](C(N)=O)NC(=O)[C@@H]2CCCN2C(=O)[C@H](Cc2c[nH]c3ccccc23)NC(=O)[C@H](CC(=O)O)NC(=O)CNC1=O", "note": "[eptifibatide] ([Mpa][hArg]GDWPC-NH2; disulfide 1-7)", "values": [{"measurement": "response (aggregation) to patient sera", "setting": "washed platelets [1]; eptifibatide 9 μM, data not shown", "value": "inhibited"}]}
{"molecule": "C=CC(=O)N1CCC(CNc2ncnc(N)c2-c2ccc(Oc3ccccc3)cc2)CC1", "note": "[evobrutinib]", "values": [{"measurement": "efficacy for multiple sclerosis", "setting": "[7]", "value": "demonstrated efficacy"}]}
{"molecule": "heparin", "values": [{"measurement": "aggregation to VITT patient sera, high heparin", "setting": "washed platelets [1]; high heparin concentration (100 U/mL)", "value": "blocked aggregation"}, {"measurement": "aggregation to VITT patient sera, low heparin", "setting": "washed platelets [1]; low (0.2 U/mL) concentration of heparin, 7 patients", "value": "prevented (5 of 7 patients) or delayed (2 of 7 patients)"}, {"measurement": "Platelet activation with serum and excess heparin", "setting": "platelets [8]; [10]", "value": "0.64% and 3.68% and 1.43% and 4.38%"}, {"measurement": "Platelet activation with serum and heparin", "setting": "platelets [8]; [10]", "value": "18.53% and 18% and 36.5% and 22.63%"}, {"measurement": "platelet activation by patient sera, high concentration of heparin", "setting": "platelets [8]; sera of four patients tested", "value": "blocked"}, {"measurement": "platelet activation by patient sera, low concentration of heparin", "setting": "platelets [8]; sera of four patients tested", "value": "reduced"}, {"measurement": "platelet activation by immune complexes", "setting": "platelets via FcγRIIA", "value": "blocked"}, {"measurement": "deleterious effect in 1 patient with VITT", "setting": "[9]", "value": "without deleterious effect"}]}
{"molecule": "PF4: platelet factor 4 (protein, UniProt P02776 32-101, looked up) Platelet factor 4: EAEEDGDLQCLCVKTTSQVRPRHITSLEVIKAGPHCPTAQLIATLKNGRKICLDLQAPLYKKIIKKLLES", "values": [{"measurement": "enhancement of partial aggregation to patient 2 serum", "setting": "washed platelets [1]; 10 μg/mL PF4, data not shown", "value": "No enhancement"}]}
